Reference: patent US20250041294A1, “Synergistic compositions for use in the treatment of cancer” (Sartar Therapeutics Oy, priority 2021, published 2025)

Tests used:
Type in all cases: cell-based
GOT3 cell line [1] = experiment: High throughput drug sensitivity and resistance test (CellTiter-Glo, 72 hours); conditions: GOT3; for GOT3 cell line: DSS(combo (BAY2666605))-DSS(drug): drug combined with BAY2666605 (40 nM) minus drug alone; for GOT3 cell line: DSS(combo (anagrelide))-DSS(drug): drug combined with anagrelide hydrochloride (100 nM) minus drug alone
Procedure, shortened: (§1)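 Compounds were plated in 10-fold dilutions spanning a 10,000-fold range, alone or with anagrelide (100 nM; SA4, GOT3) or BAY2666605 (40 nM; GIST882, SA4, GOT3). Viability was read by CellTiter-Glo after 72 h and normalized to DMSO and benzethonium chloride controls. Responses were expressed as DSS from four-parameter fits, and the single-agent DSS was subtracted from the combination DSS.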

SA4 cell line [2] = experiment: as above; conditions: SA4; for SA4 cell line: DSS(combo (BAY2666605))-DSS(drug): drug combined with BAY2666605 (40 nM) minus drug alone; for SA4 cell line: DSS(combo (anagrelide))-DSS(drug): drug combined with anagrelide hydrochloride (100 nM) minus drug alone
Procedure, shortened: as §1

GIST882 cell line [3] = experiment: as above; conditions: drug combined with BAY2666605 (40 nM) minus drug alone
Procedure, shortened: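 GIST882 viability read by CellTiter-Glo after 72 h, normalized to 0.01% DMSO and 100 μmol/L benzethonium chloride. Compounds also combined with 40 nM BAY2666605. Four-parameter logistic curves; response as drug sensitivity score, with synergy as combination DSS minus single-agent DSS.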

GIST882 cell line [4] = experiment: Drug combination testing with concentration matrices, SynergyFinder 2.0; conditions: combination with anagrelide, seven-concentration matrices
Method: (§2) Drug combination testing with anagrelide and 12 selected drugs was performed as described above but with selected drugs using drug concentration matrices covering seven different concentrations with 3 replicate sample of each combinations and in two replicate assays. […] The tool implements synergy scoring with four major reference models: HSA, Loewe, Bliss and ZIP models. The degree of a drug combination effect can be readily visualized as a synergy landscape map over the dose matrix and ZIP synergy score.

GOT3 cell line [5] = experiment: as above; conditions: combination with anagrelide, seven-concentration matrices
Method: as §2

SA4 cell line [6] = experiment: as above; conditions: combination with anagrelide, seven-concentration matrices
Method: as §2

GOT3 and SA4 cell lines = experiment: High throughput drug sensitivity and resistance test, average over cell lines (anagrelide combination); conditions: anagrelide combination, average of SA4 and GOT3; aDSS higher than 3.0 = synergy
Method: Cell lines. PDE3A-positive (GIST882, SA4, and GOT3) and PDE3A-negative cell lines (93TT449, 94T778, LPS141, MLS17656-92, MLS402-91, and SW872) were cultured in RPMI Medium 1640 (Gibco) with 5-, 10- or 20% fetal bovine serum (FBS, gibco), 100 U/mL of penicillin, 100 […] and 0.03 mg/mL of L-glutamine (Pen Strep Glut, Gibco, 10378-016) in a humidified, 5% CO2 atmosphere at 37° C.
High throughput drug sensitivity and resistance test. A sensitivity and resistance of cancer cell lines to 528 compounds were investigated in 9 cell lines (GIST882, SA4, GOT3, 93TT449, 94T778, LPS141, MLS17656-92, MLS402-91, and SW872). In addition, same compounds were investigated together with anagrelide hydrochloride (100 nM) treatment in the PDE3A low expressing cell lines SA4 and GOT3, and with BAY2666605 (40 nM) in all PDE3A-positive cell lines GIST882, SA4 and GOT3. The compounds were dissolved in 100% dimethyl sulfoxide or water and plated in 10-fold dilutions covering a 10,000-fold concentration range on flat clear bottom 384-well microplates as described in detail earlier (Pulkka O P, et al 2019). A cell viability was measured after 72 hours using CellTiter-Glo Cell Viability assay (Promega Inc.) and PHERAstar FS plate reader (BMG Labtech). The data were normalized to negative (0.01% dimethyl sulfoxide only) and positive (100 μmol/L benzethonium chloride) controls.
A four-parameter logistic dose-response curves were estimated by using the Marquardt-Levenberg algorithm and Breeze analysis platform. Drug responses to the test compounds were measured using the drug sensitivity score (DSS). Drug synergy partners, which were common in investigated cell lines were identified as following: DSS value of a single agent was subtracted from the DSS value of anagrelide-drug combination in single cell lines. […] The analysis was repeated by using BAY2666605 as a PDE3A modulator.

[7] = tested on: GIST882, GOT3 and SA4 cell lines; experiment: High throughput drug sensitivity and resistance test, average over cell lines (BAY2666605 combination); conditions: for Average DSS (aDSS): BAY2666605 combination, average of GIST882, SA4 and GOT3, aDSS higher than 3.0 = synergy; for synergy in high-throughput screening (in words): with anagrelide (GOT3, SA4) or BAY2666605 (GIST882, GOT3, SA4)
Procedure, shortened: as §1

SMILES: CO[C@H]1C[C@@H]2CC[C@@H](C)[C@@](O)(O2)C(=O)C(=O)N2CCCC[C@H]2C(=O)O[C@H]([C@H](C)C[C@@H]2CC[C@@H](OCCO)[C@H](OC)C2)CC(=O)[C@H](C)/C=C(\C)[C@@H](O)[C@@H](OC)C(=O)[C@H](C)C[C@H](C)/C=C/C=C/C=C/1C [Everolimus, everolimus]
- GOT3 cell line: DSS(combo (BAY2666605))-DSS(drug) (GOT3 cell line [1]): 4.1
- GOT3 cell line: DSS(combo (anagrelide))-DSS(drug) (GOT3 cell line [1]): 3
- SA4 cell line: DSS(combo (BAY2666605))-DSS(drug) (SA4 cell line [2]): 12.4
- SA4 cell line: DSS(combo (anagrelide))-DSS(drug) (SA4 cell line [2]): 8.1
- GIST882 cell line: DSS(combo (BAY2666605))-DSS(drug) (GIST882 cell line [3]): 3
- Average ZIP synergy score (GIST882 cell line [4]): 5
- Average ZIP synergy score (GOT3 cell line [5]): 2.3
- Average ZIP synergy score (SA4 cell line [6]): 5.5
- Average DSS (aDSS) (GOT3 and SA4 cell lines): 5.55
- Average DSS (aDSS) [7]: 6.5
- synergy in high-throughput screening (in words) [7]: synergistic

SMILES: Cc1ccc(NS(=O)(=O)c2cccc(C#N)c2)c2[nH]cc(C#N)c12 [E7820]
- GOT3 cell line: DSS(combo (anagrelide))-DSS(drug) (GOT3 cell line [1]): 7.5
- SA4 cell line: DSS(combo (anagrelide))-DSS(drug) (SA4 cell line [2]): 18.2
- Average ZIP synergy score (GIST882 cell line [4]): 3
- Average ZIP synergy score (GOT3 cell line [5]): 1.6
- Average ZIP synergy score (SA4 cell line [6]): 14.8
- Average DSS (aDSS) (GOT3 and SA4 cell lines): 12.85
- synergy in high-throughput screening (in words) [7]: synergistic

SMILES: CCN1C(=O)CNc2ncc(-c3ccc(-c4nc[nH]n4)nc3C)nc21 [CC-115]
- GOT3 cell line: DSS(combo (anagrelide))-DSS(drug) (GOT3 cell line [1]): 0.8
- SA4 cell line: DSS(combo (anagrelide))-DSS(drug) (SA4 cell line [2]): 9.5
- Average ZIP synergy score (GIST882 cell line [4]): 3.1
- Average ZIP synergy score (GOT3 cell line [5]): 1.6
- Average ZIP synergy score (SA4 cell line [6]): 4.1
- Average DSS (aDSS) (GOT3 and SA4 cell lines): 5.15
- synergy in high-throughput screening (in words) [7]: synergistic

SMILES: CCCCc1nc2cc(/C=C/C(=O)NO)ccc2n1CCN(CC)CC [Pracinostat, pracinostat]
- GOT3 cell line: DSS(combo (BAY2666605))-DSS(drug) (GOT3 cell line [1]): 1.5
- GOT3 cell line: DSS(combo (anagrelide))-DSS(drug) (GOT3 cell line [1]): −1.4
- SA4 cell line: DSS(combo (BAY2666605))-DSS(drug) (SA4 cell line [2]): 12
- SA4 cell line: DSS(combo (anagrelide))-DSS(drug) (SA4 cell line [2]): 14.8
- GIST882 cell line: DSS(combo (BAY2666605))-DSS(drug) (GIST882 cell line [3]): 5.7
- Average DSS (aDSS) (GOT3 and SA4 cell lines): 6.7
- Average DSS (aDSS) [7]: 6.4
- synergy in high-throughput screening (in words) [7]: synergistic

SMILES: CN(C)Cc1ccc(S(=O)(=O)n2ccc(/C=C/C(=O)NO)c2)cc1 [Resminostat, resminostat]
- GOT3 cell line: DSS(combo (BAY2666605))-DSS(drug) (GOT3 cell line [1]): 3.1
- GOT3 cell line: DSS(combo (anagrelide))-DSS(drug) (GOT3 cell line [1]): −0.1
- SA4 cell line: DSS(combo (BAY2666605))-DSS(drug) (SA4 cell line [2]): 11.7
- SA4 cell line: DSS(combo (anagrelide))-DSS(drug) (SA4 cell line [2]): 13.5
- GIST882 cell line: DSS(combo (BAY2666605))-DSS(drug) (GIST882 cell line [3]): 3.1
- Average DSS (aDSS) (GOT3 and SA4 cell lines): 6.7
- Average DSS (aDSS) [7]: 6.0
- synergy in high-throughput screening (in words) [7]: synergistic

SMILES: CN(C)Cc1c(C(=O)NCCOc2ccc(C(=O)NO)cc2)oc2ccccc12 [Abexinostat, abexinostat]
- GOT3 cell line: DSS(combo (BAY2666605))-DSS(drug) (GOT3 cell line [1]): 2.1
- GOT3 cell line: DSS(combo (anagrelide))-DSS(drug) (GOT3 cell line [1]): −1.1
- SA4 cell line: DSS(combo (BAY2666605))-DSS(drug) (SA4 cell line [2]): 12.3
- SA4 cell line: DSS(combo (anagrelide))-DSS(drug) (SA4 cell line [2]): 10.9
- GIST882 cell line: DSS(combo (BAY2666605))-DSS(drug) (GIST882 cell line [3]): 4.2
- Average DSS (aDSS) (GOT3 and SA4 cell lines): 4.9
- Average DSS (aDSS) [7]: 6.2
- synergy in high-throughput screening (in words) [7]: synergistic

SMILES: O=C(/C=C/c1cccc(S(=O)(=O)Nc2ccccc2)c1)NO [Belinostat, belinostat]
- GOT3 cell line: DSS(combo (BAY2666605))-DSS(drug) (GOT3 cell line [1]): 0.8
- GOT3 cell line: DSS(combo (anagrelide))-DSS(drug) (GOT3 cell line [1]): 1.1
- SA4 cell line: DSS(combo (BAY2666605))-DSS(drug) (SA4 cell line [2]): 15.8
- SA4 cell line: DSS(combo (anagrelide))-DSS(drug) (SA4 cell line [2]): 10
- GIST882 cell line: DSS(combo (BAY2666605))-DSS(drug) (GIST882 cell line [3]): −0.3
- Average DSS (aDSS) (GOT3 and SA4 cell lines): 5.55
- Average DSS (aDSS) [7]: 5.4
- synergy in high-throughput screening (in words) [7]: synergistic

SMILES: CC(C)C[C@@H](C(=O)N[C@H](C(=O)OC1CCCC1)c1ccccc1)[C@H](O)C(=O)NO [Tosedostat, tosedostat]
- GOT3 cell line: DSS(combo (BAY2666605))-DSS(drug) (GOT3 cell line [1]): 6.7
- GOT3 cell line: DSS(combo (anagrelide))-DSS(drug) (GOT3 cell line [1]): 2.5
- SA4 cell line: DSS(combo (BAY2666605))-DSS(drug) (SA4 cell line [2]): 14.6
- SA4 cell line: DSS(combo (anagrelide))-DSS(drug) (SA4 cell line [2]): 5.1
- GIST882 cell line: DSS(combo (BAY2666605))-DSS(drug) (GIST882 cell line [3]): 21
- Average DSS (aDSS) (GOT3 and SA4 cell lines): 3.8
- Average DSS (aDSS) [7]: 14.1
- synergy in high-throughput screening (in words) [7]: synergistic
